Patent US10626092B2, “Polymorphic forms of 3-[(2-butyl-1-(2-diethylamino-ethyl)-1H-benzoimidazol-5-yl]-N-hydroxy-acrylamide and uses thereof” (MEI PHARMA, INC., priority 2016, dated 2020)
Counter-ions that a name gives are not always drawn.

Key:
Format in all cases: physicochemical
[1] = Moisture sorption study (DVS analysis)
Description: A moisture sorption study was performed to investigate the physical stability of 3-[2-butyl-1-(2-diethylamino-ethyl)-1H-benzoimidazol-5-yl]-N-hydroxy-acrylamide dihydrochloride 2.5 hydrate upon exposure to several relative humidity profiles. HT-XRPD analyses were performed on the solid material obtained after the DVS analyses. The analytical method is described herein.
Differences in hygroscopicity (moisture uptake) of the various forms of a solid material provided a measure of their relative stability at increasing relative humidity. Moisture sorption isotherms of small samples were obtained using a DVS-1 system from Surface Measurement Systems (London, UK); this instrument is suitable for use with as little as a few milligrams of sample, with an accuracy of 0.1 μg. Several humidity profile were applied as described in each individual experiment. Steps consisted of 10% RH. Weight equilibration per step was set with a minimum holding time of 1 hour (10% relative humidity step). At the end of the DVS experiments, the recovered solid material was measured by HT-XRPD.

[2] = Variable temperature XRPD; details: 25° C. to 143° C., cooling to 25° C., reheating to 155° C.
Description: To investigate the phase interconversions upon temperature exposure, a variable temperature XRPD analysis on 3-[2-butyl-1-(2-diethylamino-ethyl)-1H-benzoimidazol-5-yl]-N-hydroxy-acrylamide dihydrochloride 2.5 hydrate was performed. The experiment was run between 25° C. to 130° C. with cooling back to 25° C. at the end. […] After reaching a temperature of 130° C., the material was cooled back to 25° C.
A variable temperature XRPD experiment with 3-[2-butyl-1-(2-diethylamino-ethyl)-1H-benzoimidazol-5-yl]-N-hydroxy-acrylamide dihydrochloride monohydrate was conducted to investigate the solid form conversion that occurred upon heating. The experiment was run between 25° C. to 143° C. followed by cooling to 25° C., reheating to 155° C. and then cooling again to 25° C. (see FIG. 19).
For variable humidity and temperature experiments the ANSYCO HT chamber was used, installed within the D8 Advance system diffractometer (Bruker) designed with Brag-Brentano geometry and equipped with LynxEye solid state detector. The radiation used for collecting the data was CuKα1 (λ=1.54056 Å) monochromatized by germanium crystal. The material was placed on a fixed sample holder that was mounted inside the chamber.
VT-XRPD: The temperature variation rate was 10° C./min and the equilibration time, prior to starting the data collection at each temperature, was 8 min. The patterns were collected in the range 4-41°2θ, with a step of 0.01573°2θ and measuring time per step of 1 sec. The data collection time, per temperature, was 40 min.

[3] = Physical stability under accelerated aging conditions (40° C./70% RH), physical form re-determined by HT-XRPD
Description: Solids were analyzed for their physical stability under accelerated aging conditions (40° C./70% RH) for 48 hours. After the exposure, the physical form was determined again by HT-XRPD analysis. The physico-chemical characterization of the forms was done by TGMS analysis to determine the solvation state of the form and thermal events and by DSC analysis to confirm the thermal events observed in the SDTA signal of the TGA. (See Examples for details.)
Suspensions of 3-[2-butyl-1-(2-diethylamino-ethyl)-1H-benzoimidazol-5-yl]-N-hydroxy-acrylamide dihydrochloride monohydrate (Form 1) and 2.5 hydrate (Form 3) were prepared in 12 process relevant solvent systems. The suspensions were cycled between 5° C. and 50° C. followed by aging at 25° C. for 72 hours. […] Upon completion of the incubation time, the solids were collected, dried under ambient conditions and dried under deep vacuum before being analyzed by HT-XRPD. All the measured solids were exposed to accelerated ageing conditions (2 days at 40° C./70% RH) followed by re-analysis by HT-XRPD.
Long-term slurry conversion experiments were carried out by preparing suspensions of 3-[2-butyl-1-(2-diethylamino-ethyl)-1H-benzoimidazol-5-yl]-N-hydroxy-acrylamide dihydrochloride 2.5 hydrate (Form 3) and monohydrate (Form 1) in 12 different solvents and solvent mixtures. Approximately 30 mg of the specific form was dosed in a standard HPLC vial and aliquots of 100 μL of solvent until a suspension was formed. The suspensions were stirred for 2 weeks at room temperature and for 1 week at 50° C. The solids were isolated from the mother liquor and analyzed by HT-XRPD after mild drying under ambient conditions (ambient) and after thorough drying under vacuum (vacuum). All the solids were exposed to accelerated ageing conditions (2 days at 40° C./70% RH) and re-analyzed by HT-XRPD.
The competitive slurry experiments were performed in ethanol/water mixtures and methanol/water mixtures within a water activity range of 0-0.2. Approximately 50 mg of each pracinostat dihydrochloride solid form 2.5 hydrate and monohydrate were solid dosed in 1.8 mL HPLC vials. Aliquots of 100 μL of the different water mixtures were added until about half of the amount of solid was in solution. Subsequently, the vials were stirred for one week at 5° C., 21° C. and 50° C. Upon completion of the equilibration time, the solids were separated from the liquids by centrifugation. The solids were dried under ambient conditions (ambient) and dried under vacuum (vacuum) before HT-XRPD analysis. All solid samples were exposed to accelerated gaining conditions (40° C. and 70% RH) for two days (AAC). The water content in the liquid phase was determined Karl Fischer analysis.

[4] = Desolvation studies: equilibration at 125° C. in high boiling point solvents; details: two days; for Form in Ambient AAC: then accelerated aging conditions
Description: Using solvent equilibration of hydrates in high boiling point solvents has been reported as a method to obtaining desolvated forms. […] The experiments were started with approximately 50 mg of material and 100 μL of solvent. After equilibration, the solids were isolated from the solutions by centrifugation. The solids were allowed to dry under ambient conditions before HT-XRPD analysis was performed. The wet solids were analyzed by HT-XRPD immediately to avoid hydration under ambient conditions or under vacuum.

[5] = Long-term slurry conversion experiments
Description: Approximately 30 mg of the specific form was dosed in a standard HPLC vial and aliquots of 100 μL of solvent until a suspension was formed. […] The solids were isolated from the mother liquor and analyzed by HT-XRPD after mild drying under ambient conditions (ambient) and after thorough drying under vacuum (vacuum). All the solids were exposed to accelerated ageing conditions (2 days at 40° C./70% RH) and re-analyzed by HT-XRPD.

[6] = cycles 45-95-0-45% RH, two cycles
[7] = second DVS: 45% to 95% RH, held at 95% RH for 10 hours

CCCCc1nc2cc(/C=C/C(=O)NO)ccc2n1CCN(CC)CC [Form 1, 3-[2-butyl-1-(2-diethylamino-ethyl)-1H-benzoimidazol-5-yl]-N-hydroxy-acrylamide dihydrochloride monohydrate]
solid form recovered after DVS ([1]; 45-95-0% RH with aging for 5 hours at 0% RH, HT-XRPD): 2.5 hydrate (Form 3) with a small contamination of the hemihydrate (Form 10) | water uptake between 85-95% RH [1, 6]: 17% | weight loss during desorption between 15-0% RH [1, 6]: 10% | weight loss during desorption between 95-75% RH [1, 6]: 7% | water uptake at 75% RH ([1]; first cycle of 45-95-0-45% RH): 18% | water uptake between 85-95% RH [1, 7]: 18% | weight loss after aging at 95% RH for 2 hours [1, 7]: about 12% | solid form conversion upon heating [2]: No solid form conversions were observed | solid form after accelerated aging conditions ([3]; 2 days at 40° C./70% RH): converted to the 2.5 hydrate Form 3 | Stability ([3]; physical stability under accelerated aging conditions (40° C./70% RH) for 48 hours, dihydrochloride monohydrate): Unstable | Form in Ambient ([4]; Anisole): Mono | Form in Ambient AAC ([4]; Anisole): 2.5 | Form in Ambient ([4]; Cumene): Mono | Form in Ambient AAC ([4]; Cumene, dihydrochloride monohydrate): 2.5 | Form in Ambient ([4]; N-Methyl-2-pyrrolidone, dihydrochloride monohydrate): No solids | Form in Ambient ([4]; p-Xylene): Mono | Form in Ambient AAC ([4]; p-Xylene): 2.5 | solid form after slurry ([5]; all ethanol/water and methanol/water mixtures at ambient conditions): transformed into the 2.5 hydrate (Form 3) | solid form after slurry ([5]; no water present in the solvent system): conversion to the anhydrous Form 9
